Measured values reported in patent publication US10611730B2, “Benzimidazolone and benzothiazolone compounds and their use as AMPA receptor modulators” (Janssen Pharmaceutica NV, priority 2015, dated 2020).

target: TARP γ8 dependent AMPA receptor (GluA1o-g8 fusion channel) (Homo sapiens (Human), UniProt P42261+Q8WXS5); experiment: Calcium flux assay (FLIPR), HEK293 cells expressing GRIA1o-CACNG8 fusion; type: cell-based; conditions: inhibition of calcium flux after 15 μM glutamate, read-out: GluR1-γ8 pIC50 (converted)
Sequence (P42261 other isoform, or with tags, fused parts or gaps): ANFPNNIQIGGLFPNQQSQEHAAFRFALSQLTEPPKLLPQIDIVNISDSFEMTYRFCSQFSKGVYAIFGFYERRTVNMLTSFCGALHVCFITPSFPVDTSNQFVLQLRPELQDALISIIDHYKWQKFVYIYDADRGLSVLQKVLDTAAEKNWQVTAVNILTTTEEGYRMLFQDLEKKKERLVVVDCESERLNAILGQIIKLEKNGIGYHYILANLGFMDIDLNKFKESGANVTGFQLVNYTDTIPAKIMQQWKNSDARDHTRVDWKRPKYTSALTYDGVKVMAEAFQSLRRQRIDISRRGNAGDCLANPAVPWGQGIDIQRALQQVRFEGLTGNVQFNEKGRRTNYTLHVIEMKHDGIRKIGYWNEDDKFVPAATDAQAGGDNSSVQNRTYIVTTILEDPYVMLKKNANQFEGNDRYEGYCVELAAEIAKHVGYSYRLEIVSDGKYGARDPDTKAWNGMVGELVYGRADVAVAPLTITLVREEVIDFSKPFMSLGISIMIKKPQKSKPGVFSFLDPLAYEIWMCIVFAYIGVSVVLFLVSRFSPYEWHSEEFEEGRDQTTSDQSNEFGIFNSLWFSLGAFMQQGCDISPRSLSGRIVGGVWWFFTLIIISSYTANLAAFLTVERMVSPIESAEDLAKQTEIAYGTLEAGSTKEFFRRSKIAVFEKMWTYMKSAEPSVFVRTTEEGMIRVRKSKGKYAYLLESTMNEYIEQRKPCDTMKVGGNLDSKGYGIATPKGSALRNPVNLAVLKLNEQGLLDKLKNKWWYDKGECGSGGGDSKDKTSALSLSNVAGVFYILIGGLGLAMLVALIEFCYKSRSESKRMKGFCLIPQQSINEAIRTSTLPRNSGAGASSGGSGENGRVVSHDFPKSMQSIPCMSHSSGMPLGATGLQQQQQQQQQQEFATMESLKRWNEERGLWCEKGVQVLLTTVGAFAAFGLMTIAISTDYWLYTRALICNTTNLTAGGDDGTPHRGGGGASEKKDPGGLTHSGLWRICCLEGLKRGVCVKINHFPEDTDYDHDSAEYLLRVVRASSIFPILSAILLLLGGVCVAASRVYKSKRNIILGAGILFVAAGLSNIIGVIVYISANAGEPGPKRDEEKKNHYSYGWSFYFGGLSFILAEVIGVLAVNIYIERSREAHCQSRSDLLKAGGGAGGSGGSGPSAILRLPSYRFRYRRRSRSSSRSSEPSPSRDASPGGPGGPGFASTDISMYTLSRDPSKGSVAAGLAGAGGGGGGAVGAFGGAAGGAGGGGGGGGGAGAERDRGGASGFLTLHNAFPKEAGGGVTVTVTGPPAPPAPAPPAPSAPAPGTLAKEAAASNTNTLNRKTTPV
From the text: This assay was used to test compounds for their ability to inhibit TARP γ8 dependent AMPA receptor activity.
An in vitro assay was used to determine the potency of test compounds as inhibitors of the glutamate response of the channel formed by GluA1o-g8. To ensure a 1:1 stoichiometry of GluA1o and g8 subunits in the expressed channel, a fusion of the cDNAs for GRIA1o and CACNG8 was used. […] A clonal cell line in HEK293 cells stably expressing this construct, with a geneticin selection marker, was generated for use in this assay. Cell expressing the GRIAlo-CACNG8 fusion construct were grown in a monolayer in 96- or 384-well microtiter plates. […] The cells were then loaded with a calcium-sensitive dye (Calcium-5 or Calcium-6, Molecular Devices) and the test compounds at a range of concentrations.
The fluorescence in each well was normalized to the fluorescence of negative and positive control wells. […] The responses to glutamate as functions of the test compound concentrations were fitted to a four-parameter logistic function. The fitted parameter corresponding to the midpoint was taken to be the potency of inhibition of the compound.

| Compound | IC50 [nM] |
| --- | --- |
| CC(C)Oc1ccc(C(F)(F)F)cc1-c1ccc2[nH]c(=O)[nH]c2c1 [Example 22, 5-[2-Isopropoxy-5-(trifluoromethyl)phenyl]-1,3-dihydrobenzimidazol-2-one] | 316 |
| Cc1ccc(Cl)c(-c2ccc3[nH]c(=O)[nH]c3c2)c1Cl [Example 23, 5-(2,6-Dichloro-3-methyl-phenyl)-1,3-dihydrobenzimidazol-2-one] | 15.8 |
| O=c1[nH]c2ccc(-c3ccccc3Oc3ccccc3)cc2[nH]1 [Example 24, 5-(2-Phenoxyphenyl)-1,3-dihydrobenzimidazol-2-one] | 501 |
| O=c1[nH]c2ccc(-c3cc(C(F)(F)F)ccc3Cl)cc2[nH]1 [Example 25, 5-[2-Chloro-5-(trifluoromethyl)phenyl]-1,3-dihydrobenzimidazol-2-one] | 251 |
| O=c1[nH]c2ccc(-c3c(F)cccc3OCc3ccccc3)cc2[nH]1 [Example 26, 5-(2-Benzyloxy-6-fluoro-phenyl)-1,3-dihydrobenzimidazol-2-one] | 100 |
| O=Cc1cccc(F)c1-c1ccc2[nH]c(=O)[nH]c2c1 [Example 27, 3-Fluoro-2-(2-oxo-1,3-dihydrobenzimidazol-5-yl)benzaldehyde] | 1580 |
| COc1cccc(OC(C)C)c1-c1ccc2[nH]c(=O)[nH]c2c1 [Example 28, 5-(2-Isopropoxy-6-methoxy-phenyl)-1,3-dihydrobenzimidazol-2-one] | 79.4 |
| O=c1[nH]c2ccc(-c3cccc(Cl)c3OC(F)(F)F)cc2[nH]1 [Example 29, 5-[3-Chloro-2-(trifluoromethoxy)phenyl]-1,3-dihydrobenzimidazol-2-one] | 31.6 |
| O=c1[nH]c2ccc(-c3ccc(OC(F)(F)F)cc3Cl)cc2[nH]1 [Example 30, 5-[2-Chloro-4-(trifluoromethoxy)phenyl]-1,3-dihydrobenzimidazol-2-one] | 1580 |
| COc1cc(OC(F)(F)F)ccc1-c1ccc2[nH]c(=O)[nH]c2c1 [Example 33, 5-[2-Methoxy-4-(trifluoromethoxy)phenyl]-1,3-dihydrobenzimidazol-2-one] | 316 |
| O=c1[nH]c2ccc(-c3cccc(Cl)c3C(F)(F)F)cc2[nH]1 [Example 34, 5-[3-Chloro-2-(trifluoromethyl)phenyl]-1,3-dihydrobenzimidazol-2-one] | 251 |
| O=c1[nH]c2ccc(-c3ccccc3Br)cc2[nH]1 [Example 35, 5-(2-Bromophenyl)-1,3-dihydrobenzimidazol-2-one] | 251 |
| Cc1cc(Cl)cc(C)c1-c1ccc2[nH]c(=O)[nH]c2c1 [Example 37, 5-(4-Chloro-2,6-dimethyl-phenyl)-1,3-dihydrobenzimidazol-2-one] | 794 |
| Cc1cccc(C#N)c1-c1ccc2[nH]c(=O)[nH]c2c1 [Example 38, 3-Methyl-2-(2-oxo-1,3-dihydrobenzimidazol-5-yl)benzonitrile] | 501 |
| Cc1ccc(C#N)cc1-c1ccc2[nH]c(=O)[nH]c2c1 [Example 39, 4-Methyl-3-(2-oxo-1,3-dihydrobenzimidazol-5-yl)benzonitrile] | 1580 |
| N#Cc1ccc(Cl)c(-c2ccc3[nH]c(=O)[nH]c3c2)c1 [Example 40, 4-Chloro-3-(2-oxo-1,3-dihydrobenzimidazol-5-yl)benzonitrile] | 1580 |
| N#CCc1ccccc1-c1ccc2[nH]c(=O)[nH]c2c1 [Example 41, 2-[2-(2-Oxo-1,3-dihydrobenzimidazol-5-yl)phenyl]acetonitrile] | 501 |
| COC(=O)c1cccc(Cl)c1-c1ccc2[nH]c(=O)[nH]c2c1 [Example 42, Methyl 3-chloro-2-(2-oxo-1,3-dihydrobenzimidazol-5-yl)benzoate] | 501 |
| COC(=O)c1cccc(-c2ccc3[nH]c(=O)[nH]c3c2)c1Cl [Example 43, Methyl 2-chloro-3-(2-oxo-1,3-dihydrobenzimidazol-5-yl)benzoate] | 31.6 |
| COC(=O)c1ccc(Cl)c(-c2ccc3[nH]c(=O)[nH]c3c2)c1 [Example 44, Methyl 4-chloro-3-(2-oxo-1,3-dihydrobenzimidazol-5-yl)benzoate] | 316 |
| COC(=O)c1cccc(C)c1-c1ccc2[nH]c(=O)[nH]c2c1 [Example 45, Methyl 3-methyl-2-(2-oxo-1,3-dihydrobenzimidazol-5-yl)benzoate] | 251 |
| COC(=O)c1cccc(-c2ccc3[nH]c(=O)[nH]c3c2)c1C [Example 46, Methyl 2-methyl-3-(2-oxo-1,3-dihydrobenzimidazol-5-yl)benzoate] | 50.1 |
| COC(=O)c1ccc(C)c(-c2ccc3[nH]c(=O)[nH]c3c2)c1 [Example 47, Methyl 4-methyl-3-(2-oxo-1,3-dihydrobenzimidazol-5-yl)benzoate] | 501 |
| COC(=O)c1cccc(-c2ccc3[nH]c(=O)[nH]c3c2)c1OC [Example 48, Methyl 2-methoxy-3-(2-oxo-1,3-dihydrobenzimidazol-5-yl)benzoate] | 6310 |
| O=c1[nH]c2ccc(-c3c(Cl)cccc3Cl)cc2[nH]1 [Example 49, 5-(2,6-Dichlorophenyl)-1,3-dihydrobenzimidazol-2-one] | 63.1 |
| O=c1[nH]c2ccc(-c3c(Cl)cc(F)cc3Cl)cc2[nH]1 [Example 50, 5-(2,6-Dichloro-4-fluoro-phenyl)-1,3-dihydrobenzimidazol-2-one] | 158 |
| O=c1[nH]c2ccc(-c3c(Cl)cc(Cl)cc3Cl)cc2[nH]1 [Example 51, 5-(2,4,6-Trichlorophenyl)-1,3-dihydrobenzimidazol-2-one] | 501 |
| O=c1[nH]c2ccc(-c3c(F)cccc3F)cc2[nH]1 [Example 52, 5-(2,6-Difluorophenyl)-1,3-dihydrobenzimidazol-2-one] | 1000 |

More lines, now with the values ahead:

| IC50 [nM] | Compound |
| --- | --- |
| 251 | O=c1[nH]c2ccc(-c3c(F)cccc3Cl)cc2[nH]1 [Example 53, 5-(2-Chloro-6-fluoro-phenyl)-1,3-dihydrobenzimidazol-2-one] |
| 251 | Cc1cccc(F)c1-c1ccc2[nH]c(=O)[nH]c2c1 [Example 54, 5-(2-Fluoro-6-methyl-phenyl)-1,3-dihydrobenzimidazol-2-one] |
| 794 | COc1cccc(C)c1-c1ccc2[nH]c(=O)[nH]c2c1 [Example 55] |
| 631 | N#Cc1cccc(Cl)c1-c1ccc2[nH]c(=O)[nH]c2c1 [Example 56, 3-Chloro-2-(2-oxo-1,3-dihydrobenzimidazol-5-yl)benzonitrile] |
| 631 | Cc1cccc(C(F)(F)F)c1-c1ccc2[nH]c(=O)[nH]c2c1 [Example 57, 5-[2-Methyl-6-(trifluoromethyl)phenyl]-1,3-dihydrobenzimidazol-2-one] |
| 3160 | O=c1[nH]c2ccc(-c3cccc4cccnc34)cc2[nH]1 [Example 58, 5-(8-Quinolyl)-1,3-dihydrobenzimidazol-2-one] |
| 316 | O=c1[nH]c2ccc(-c3ccccc3Cc3ccccc3)cc2[nH]1 [Example 59, 5-(2-Benzylphenyl)-1,3-dihydrobenzimidazol-2-one] |
| 79.4 | Cc1c(-c2ccc3[nH]c(=O)[nH]c3c2)cccc1C(F)(F)F [Example 60, 5-[2-Methyl-3-(trifluoromethyl)phenyl]-1,3-dihydrobenzimidazol-2-one] |
| 39.8 | O=c1[nH]c2ccc(-c3cccc(C(F)(F)F)c3Cl)cc2[nH]1 [Example 61, 5-[2-Chloro-3-(trifluoromethyl)phenyl]-1,3-dihydrobenzimidazol-2-one] |
| 200 | CC(C)Oc1cccc(-c2ccc3[nH]c(=O)[nH]c3c2)c1C#N [Example 62, 2-Isopropoxy-6-(2-oxo-1,3-dihydrobenzimidazol-5-yl)benzonitrile] |
| 631 | N#Cc1c(Br)cccc1-c1ccc2[nH]c(=O)[nH]c2c1 [Example 63, 2-Bromo-6-(2-oxo-1,3-dihydrobenzimidazol-5-yl)benzonitrile] |
| 100 | Cc1cccc(-c2ccc3[nH]c(=O)[nH]c3c2)c1Cl [Example 64, 5-(2-Chloro-3-methyl-phenyl)-1,3-dihydrobenzimidazol-2-one] |
| 1260 | N#Cc1c(-c2ccc3[nH]c(=O)[nH]c3c2)cccc1C(F)(F)F [Example 65, 2-(2-Oxo-1,3-dihydrobenzimidazol-5-yl)-6-(trifluoromethyl)benzonitrile] |
| 251 | Cc1c(C#N)cccc1-c1ccc2[nH]c(=O)[nH]c2c1 [Example 67, 2-Methyl-3-(2-oxo-1,3-dihydrobenzimidazol-5-yl)benzonitrile] |
| 316 | N#Cc1cccc(-c2ccc3[nH]c(=O)[nH]c3c2)c1Cl [Example 68, 2-Chloro-3-(2-oxo-1,3-dihydrobenzimidazol-5-yl)benzonitrile] |
| 501 | O=c1[nH]c2ccc(-c3c(Cl)cncc3Cl)cc2[nH]1 [Example 69, 5-(3,5-Dichloro-4-pyridyl)-1,3-dihydrobenzimidazol-2-one] |
| 794 | Cc1ccnc(Cl)c1-c1ccc2[nH]c(=O)[nH]c2c1 [Example 70, 5-(2-Chloro-4-methyl-3-pyridyl)-1,3-dihydrobenzimidazol-2-one] |
| 50.1 | Cc1nc(-c2cccc(-c3ccc4[nH]c(=O)[nH]c4c3)c2C)no1 [Example 71, 5-[2-Methyl-3-(5-methyl-1,2,4-oxadiazol-3-yl)phenyl]-1,3-dihydrobenzimidazol-2-one] |
| 794 | Cc1nc(-c2cccc(-c3ccc4[nH]c(=O)sc4c3)c2C)no1 [Example 72, 6-[2-Methyl-3-(5-methyl-1,2,4-oxadiazol-3-yl)phenyl]-3H-1,3-benzothiazol-2-one] |
